# Results: patent US8669271B2 (Boehringer Ingelheim International GmbH, priority 2010, dated 2014)
# Molecular target: T1, human GPR119 (Homo sapiens, UniProt Q8TDV5)
# T1 construct: expression vector for human GPR119 cDNA (Acc. No. NP_848566); expressed in transfected cells
# T1 sequence (Q8TDV5 1-335): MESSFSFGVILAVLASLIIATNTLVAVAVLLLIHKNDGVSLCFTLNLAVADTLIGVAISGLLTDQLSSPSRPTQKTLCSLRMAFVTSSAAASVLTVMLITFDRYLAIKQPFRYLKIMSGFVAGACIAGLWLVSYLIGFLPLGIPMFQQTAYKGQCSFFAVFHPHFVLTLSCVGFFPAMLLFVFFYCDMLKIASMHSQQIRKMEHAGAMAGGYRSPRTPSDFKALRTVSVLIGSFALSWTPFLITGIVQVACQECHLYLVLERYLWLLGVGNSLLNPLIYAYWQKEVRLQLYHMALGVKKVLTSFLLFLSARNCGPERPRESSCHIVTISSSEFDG
# Assay: AlphaScreen cAMP assay in Min-6/hGPR119 cells (activation of GPR119, intracellular cAMP)
# Format: cell-based
# Details: MIN6 cells stably transfected with human GPR119; cAMP by AlphaScreen after 45 minutes incubation at room temperature
# Method: The compounds of formula I according to the invention modulate the activity of the G-protein-coupled receptor GPR119. The effect of the compounds on the activation of GPR119 and on the stimulation of intracellular cAMP concentration is determined using the AlphaScreen cAMP Assay Kit (Cat.No.#6760625R) made by PerkinElmer.
# MIN6 cells [Miyazaki J et al. Endocrinology. 1990 July; 127(1):126-32] are stably transfected with an expression vector for human GPR119 cDNA (Acc. No. NP_848566). Min-6/hGPR119 cells are cultured in DMEM, 10% FBS, 50 μM β-mercaptoethanol, 0.3 mg/mL Geniticin, 2 mM GlutaMAX at 37° C. 5% CO2. For the assay, the cells are seeded in Optiplates (white, 384-well, 160W— barcoded, TC, sterile with lid, Cat.No.#6007688 (Perkin Elmer); 10000 cells/well; 50 μl). The plates covered with lids are then incubated for 24 hours at 37° C./5% CO2. After the medium is aspirated from the wells completely, 10 μl of the test compound are added, the compounds are diluted using stimulating buffer (140 mM NaCl, 3.6 mM KCl, 0.5 mM NaH2PO4, 0.5 mM MgSO4, 1.5 mM CaCl2, 10 mM Hepes, 5 mM NaHCO3; pH 7.4. 0.5 mM IBMX and 0.1% BSA, the final DMSO concentration is 1%). After 45 minutes incubation at room temperature (approx. 20° C.), the cAMP concentrations are determined using the AlphaScreen cAMP Assay Kit (Cat.No.#6760625R from PerkinElmer).
row,SMILES,EC50 [nM]
1,"CC(C)(C)OC(=O)N1CCC(C2Cc3cc(-c4ccc(CC#N)cc4)ncc3O2)CC1 (stereo not shown) [Example 31, 4-[5-(4-Cyanomethyl-phenyl)-2,3-dihydro-furo[2,3-c]pyridin-2-yl]-piperidine-1-carboxylic acid tert-butyl ester]",39
2,"CC(C)(C)OC(=O)N1CCC(C2Cc3cc(-c4cncnc4)ncc3O2)CC1 (stereo not shown) [Example 33, 4-(5-Pyrimidin-5-yl-2,3-dihydro-furo[2,3-c]pyridin-2-yl)-piperidine-1-carboxylic acid tert-butyl ester]",190
3,"CNS(=O)(=O)c1ccc(-c2cc3c(cn2)OC(C2CCN(C(=O)OC(C)(C)C)CC2)C3)cc1 (stereo not shown) [Example 36, 4-[5-(4-Methylsulfamoyl-phenyl)-2,3-dihydro-furo[2,3-c]pyridin-2-yl]-piperidine-1-carboxylic acid tert-butyl ester]",33
4,"Cc1noc(C)c1-c1cc2c(cn1)OC(C1CCN(C(=O)OC(C)(C)C)CC1)C2 (stereo not shown) [Example 38, 4-[5-(3,5-Dimethyl-isoxazol-4-yl)-2,3-dihydro-furo[2,3-c]pyridin-2-yl]-piperidine-1-carboxylic acid tert-butyl ester]",573
5,"CC(C)(C)OC(=O)N1CCC(C2Cc3cc(-c4cnco4)ncc3O2)CC1 (stereo not shown) [Example 39, 4-(5-Oxazol-5-yl-2,3-dihydro-furo[2,3-c]pyridin-2-yl)-piperidine-1-carboxylic acid tert-butyl ester]",152
6,"CC(C)(C)OC(=O)N1CCC(C2Cc3cc(-c4ccc(C(N)=O)cn4)ccc3O2)CC1 (stereo not shown) [Example 40, 4-[5-(5-Carbamoyl-pyridin-2-yl)-2,3-dihydro-benzofuran-2-yl]-piperidine-1-carboxylic acid tert-butyl ester]",158
7,"CC(C)(C)OC(=O)N1CCC(C2Cc3cc(-c4ccncc4)ncc3O2)CC1 (stereo not shown) [Example 41, 4-(5-Pyridin-4-yl-2,3-dihydro-furo[2,3-c]pyridin-2-yl)-piperidine-1-carboxylic acid tert-butyl ester]",34
8,"CNC(=O)c1ccc(-c2ccc3c(c2)CC(C2CCN(C(=O)OC(C)(C)C)CC2)O3)nc1 (stereo not shown) [Example 42, 4-[5-(5-Methylcarbamoyl-pyridin-2-yl)-2,3-dihydro-benzofuran-2-yl]-piperidine-1-carboxylic acid tert-butyl ester]",64
9,"CC(C)(C)OC(=O)N1CCC(C2Cc3cc(-c4ccncc4C#N)ccc3O2)CC1 (stereo not shown) [Example 43, 4-[5-(3-Cyano-pyridin-4-yl)-2,3-dihydro-benzofuran-2-yl]-piperidine-1-carboxylic acid tert-butyl ester]",269
10,"CC(C)(C)OC(=O)N1CCC(C2Cc3cc(-c4cccnc4)ncc3O2)CC1 (stereo not shown) [Example 45, 4-(5-Pyridin-3-yl-2,3-dihydro-furo[2,3-c]pyridin-2-yl)-piperidine-1-carboxylic acid tert-butyl ester]",410
11,"CC(C)(C)OC(=O)N1CCC(C2Cc3cc(-c4ccc(CS(C)(=O)=O)cn4)ccc3O2)CC1 (stereo not shown) [Example 48, 4-[5-(5-Methanesulfonylmethyl-pyridin-2-yl)-2,3-dihydro-benzofuran-2-yl]-piperidine-1-carboxylic acid tert-butyl ester]",53
12,"CC(C)(C)OC(=O)N1CCC(C2Cc3cc(-c4ccnnc4)ccc3O2)CC1 (stereo not shown) [Example 50, 4-(5-Pyridazin-4-yl-2,3-dihydro-benzofuran-2-yl)-piperidine-1-carboxylic acid tert-butyl ester]",161
13,"Cc1cc(-c2cc3c(cn2)OC(C2CCN(C(=O)OC(C)(C)C)CC2)C3)ccn1 (stereo not shown) [Example 52, 4-[5-(2-Methyl-pyridin-4-yl)-2,3-dihydro-furo[2,3-c]pyridin-2-yl]-piperidine-1-carboxylic acid tert-butyl ester]",49
14,"COc1cc(-c2cc3c(cn2)OC(C2CCN(C(=O)OC(C)(C)C)CC2)C3)ccn1 (stereo not shown) [Example 53, 4-[5-(2-Methoxy-pyridin-4-yl)-2,3-dihydro-furo[2,3-c]pyridin-2-yl]-piperidine-1-carboxylic acid tert-butyl ester]",122
15,"CC(C)(C)OC(=O)N1CCC(C2Cc3cc(-c4ccnnc4)ncc3O2)CC1 (stereo not shown) [Example 54, 4-(5-Pyridazin-4-yl-2,3-dihydro-furo[2,3-c]pyridin-2-yl)-piperidine-1-carboxylic acid tert-butyl ester]",265

# Compounds with a lower EC50, results first:
row,EC50 [nM],SMILES
1,21,"CCNC(=O)c1ccc(-c2cc3c(cn2)OC(C2CCN(C(=O)OC(C)(C)C)CC2)C3)cc1 (stereo not shown) [Example 32, 4-[5-(4-Ethylcarbamoyl-phenyl)-2,3-dihydro-furo[2,3-c]pyridin-2-yl]-piperidine-1-carboxylic acid tert-butyl ester]"
2,9,"CC(C)(C)OC(=O)N1CCC(C2Cc3cc(-c4ccc(S(C)(=O)=O)c(F)c4)ncc3O2)CC1 (stereo not shown) [Example 34, 4-[5-(3-Fluoro-4-methanesulfonyl-phenyl)-2,3-dihydro-furo[2,3-c]pyridin-2-yl]-piperidine-1-carboxylic acid tert-butyl ester]"
3,17,"CC(C)(C)OC(=O)N1CCC(C2Cc3cc(-c4ccc(CS(C)(=O)=O)cc4F)ncc3O2)CC1 (stereo not shown) [Example 35, 4-[5-(2-Fluoro-4-methanesulfonylmethyl-phenyl)-2,3-dihydro-furo[2,3-c]pyridin-2-yl]-piperidine-1-carboxylic acid tert-butyl ester]"
4,31,"CC(C)(C)OC(=O)N1CCC(C2Cc3cc(-c4ccc(NS(C)(=O)=O)cc4)ncc3O2)CC1 (stereo not shown) [Example 37, 4-[5-(4-Methanesulfonylamino-phenyl)-2,3-dihydro-furo[2,3-c]pyridin-2-yl]-piperidine-1-carboxylic acid tert-butyl ester]"
5,30,"CC(C)(C)OC(=O)N1CCC(C2Cc3cc(-c4ccc(C#N)nc4)ncc3O2)CC1 (stereo not shown) [Example 44, 4-[5-(6-Cyano-pyridin-3-yl)-2,3-dihydro-furo[2,3-c]pyridin-2-yl]-piperidine-1-carboxylic acid tert-butyl ester]"
6,15,"CC(C)(C)OC(=O)N1CCC(C2Cc3cc(-c4ccc(C#N)cc4)ncc3O2)CC1 (stereo not shown) [Example 46, 4-[5-(4-Cyano-phenyl)-2,3-dihydro-furo[2,3-c]pyridin-2-yl]-piperidine-1-carboxylic acid tert-butyl ester]"
7,8,"CC(C)(C)OC(=O)N1CCC(C2Cc3cc(-c4ccnc(F)c4)ncc3O2)CC1 (stereo not shown) [Example 47, 4-[5-(2-Fluoro-pyridin-4-yl)-2,3-dihydro-furo[2,3-c]pyridin-2-yl]-piperidine-1-carboxylic acid tert-butyl ester]"
8,22,"CC(C)(C)OC(=O)N1CCC(C2Cc3cc(-c4ccc(CS(C)(=O)=O)cc4)ncc3O2)CC1 (stereo not shown) [Example 49, 4-[5-(4-Methanesulfonylmethyl-phenyl)-2,3-dihydro-furo[2,3-c]pyridin-2-yl]-piperidine-1-carboxylic acid tert-butyl ester]"
9,10,"CC(C)(C)OC(=O)N1CCC(C2Cc3cc(-c4ccncc4F)ncc3O2)CC1 (stereo not shown) [Example 51, 4-[5-(3-Fluoro-pyridin-4-yl)-2,3-dihydro-furo[2,3-c]pyridin-2-yl]-piperidine-1-carboxylic acid tert-butyl ester]"
10,16,"CC(C)(C)OC(=O)N1CCC(C2Cc3cc(-c4ccnc(C#N)c4)ncc3O2)CC1 (stereo not shown) [Example 55, 4-[5-(2-Cyano-pyridin-4-yl)-2,3-dihydro-furo[2,3-c]pyridin-2-yl]-piperidine-1-carboxylic acid tert-butyl ester]"
